The source of these data is the NIST ThermoML archive (doi:10.1021/acs.jced.5b01048).

Data set [1] in a line: refractive index (Na D-line) (dimensionless). The note with it: 293.15 K; 101.33 kPa; Liquid; Standard Abbe refractometry.
The conditions of data set [2]: 293.15 K; 101.33 kPa; Liquid; Buoyancy - hydrostatic balance.

± gives the expanded uncertainty stated by the source.

As for `C=CCO` [2-propenol], in data set [1], the refractive index amounted to 1.4119 ± 0.0005. In data set [2], the mass density is given as 854 ± 1 kg/m3.
Take `CCO` [ethanol]: the refractive index in data set [1] was 1.3616 ± 0.0005. Besides, in data set [2], the mass density is 790 ± 1 kg/m3.
On to `CO` [methanol], for which the refractive index in data set [1] worked out at 1.3276 ± 0.0005. For the same compound, the mass density in data set [2] came out at 792.2 ± 1 kg/m3.
In the case of `O` [water], the refractive index in data set [1] is on record as 1.3328 ± 0.0005. For the same compound, the mass density in data set [2] turned out to be 998.4 ± 1 kg/m3.

As usually defined, the refractive index is a measure of how strongly the sample bends light. What is called mass density is the mass of a sample divided by its volume.
